Here are results for 22 compounds from US8765728B2, “[1,5]-diazocin derivatives” (MelliTech, priority 2009, dated 2014).

Each structure is given as a SMILES string.

The experiment concerns Min6 cell. Briefly: Insulin secretion response of beta cell line to formula I compounds (insulin ELISA). Type of experiment: cell-based. Conditions: rank according to % increase versus control at most effective dose. The protocol: The secretory responses of beta cell lines to glucose were tested as described in Merglen et al. Endocrinology, (2004) 145(2):667-78.
Briefly, after incubation with compounds from formula I or control vehicle, cells were maintained for 2 hours in glucose-free culture medium. The cells were then washed twice and preincubated for 30 minutes at 37° C. in glucose-free Krebs-Ringer bicarbonate HEPES buffer (KRBH: 135 mM NaCl, 3.6 mM KCl, 5 mM NaHCO3, 0.5 mM NaH2PO4, 0.5 mM MgCl2, 1.5 mM CaCl2, and 10 mM HEPES, pH 7.4). BSA (0.1%) was added as an insulin carrier. Cells were subsequently washed with glucose-free KRBH and then incubated for 30 minutes at 37° C. in KRBH containing different concentrations of glucose. The reaction was stopped by placing the plates on ice; supernatants were collected to determine insulin secretion and cells were used for intracellular insulin content following acid-ethanol extraction. Insulin was measured by ELISA (Linco) according to the manufacturer's instructions.
In general terms: In an ELISA, binding on a coated surface is turned into a signal by an enzyme label.

With `O=C(CN1CCC(=O)N(C2CC2)Cc2cc(F)ccc21)c1ccc(F)c(F)c1` [Compound 43, 5-cyclopropyl-1-(2-(3,4-difluorophenyl)-2-oxoethyl)-8-fluoro-2,3,5,6-tetrahydrobenzo[b][1,5]diazocin-4(1H)-one], the “Insulin secretion (Min6 cell) Range 1 to 5” value (“Insulin secretion” below) is 2 (2: 110-120% of control).
For `O=C(CN1CCC(=O)N(C2CC2)Cc2cc(F)ccc21)c1ccc(Cl)cc1` [Compound 44, 1-(2-(4-chlorophenyl)-2-oxoethyl)-5-cyclopropyl-8-fluoro-2,3,5,6-tetrahydrobenzo[b][1,5]diazocin-4(1H)-one], the “Insulin secretion” value was 1 (1: 90-110% of control).
For `COc1ccc(OC)c(C(O)CN2CCC(=O)N(C3CC3)Cc3cc(F)ccc32)c1` (stereo not shown) [Compound 45, 5-cyclopropyl-1-(2-(2,5-dimethoxyphenyl)-2-hydroxyethyl)-8-fluoro-2,3,5,6-tetrahydrobenzo[b][1,5]diazocin-4(1H)-one], the “Insulin secretion” value is given as 1 (1: 90-110% of control).
As for `O=C1CCN(CC(O)c2ccc(F)cc2)c2ccc(F)cc2CN1C1CC1` (stereo not shown) [Compound 46, 5-cyclopropyl-8-fluoro-1-(2-(4-fluorophenyl)-2-hydroxyethyl)-2,3,5,6-tetrahydrobenzo[b][1,5]diazocin-4(1H)-one], the figure is 2 (2: 110-120% of control); as for `O=C1CCN(CC(O)c2cccc(F)c2)c2ccc(F)cc2CN1C1CC1` (stereo not shown) [Compound 47, 5-cyclopropyl-8-fluoro-1-(2-(3-fluorophenyl)-2-hydroxyethyl)-2,3,5,6-tetrahydrobenzo[b][1,5]diazocin-4(1H)-one], 2 (2: 110-120% of control); as for `O=C1CCN(CC(O)c2ccc(OC(F)(F)F)cc2)c2ccc(F)cc2CN1C1CC1` (stereo not shown) [Compound 48, 5-cyclopropyl-8-fluoro-1-(2-hydroxy-2-(4-(trifluoromethoxy)phenyl)ethyl)-2,3,5,6-tetrahydrobenzo[b][1,5]diazocin-4(1H)-one], 2 (2: 110-120% of control).
With `O=C1CCN(CC(O)c2ccc(F)c(F)c2)c2ccc(F)cc2CN1C1CC1` (stereo not shown) [Compound 49, 5-cyclopropyl-1-(2-(3,4-difluorophenyl)-2-hydroxyethyl)-8-fluoro-2,3,5,6-tetrahydrobenzo[b][1,5]diazocin-4(1H)-one], the “Insulin secretion” value is on record as 5 (5: >170% of control).
As for `O=C1CCN(CC(O)c2ccc(Cl)cc2)c2ccc(F)cc2CN1C1CC1` (stereo not shown) [Compound 50, 1-(2-(4-chlorophenyl)-2-hydroxyethyl)-5-cyclopropyl-8-fluoro-2,3,5,6-tetrahydrobenzo[b][1,5]diazocin-4(1H)-one], the “Insulin secretion” value is listed as 2 (2: 110-120% of control).
Consider `COc1ccc(OCC(O)CN2CCC(=O)N(C3CC3)Cc3cc(OC)ccc32)cc1` (stereo not shown) [Compound 51, 5-cyclopropyl-1-(2-hydroxy-3-(4-methoxyphenoxy)propyl)-8-methoxy-2,3,5,6-tetrahydrobenzo[b][1,5]diazocin-4(1H)-one], for which the “Insulin secretion” value was 2 (2: 110-120% of control).
On to `O=C1CCN(CC(O)COc2ccccc2)c2ccc(F)cc2CN1C1CC1` (stereo not shown) [Compound 52, 5-cyclopropyl-8-fluoro-1-(2-hydroxy-3-phenoxypropyl)-2,3,5,6-tetrahydrobenzo[b][1,5]diazocin-4(1H)-one], for which the “Insulin secretion” value is 1 (1: 90-110% of control).
For `COc1ccc(OCC(O)CN2CCC(=O)N(C3CC3)Cc3cc(F)ccc32)cc1` (stereo not shown) [Compound 53, 5-cyclopropyl-8-fluoro-1-(2-hydroxy-3-(4-methoxyphenoxy)propyl)-2,3,5,6-tetrahydrobenzo[b][1,5]diazocin-4(1H)-one], the “Insulin secretion” value is 1 (1: 90-110% of control).
The figure for `COc1ccc2c(c1)CNC(=O)CCN2` [Compound 54, 8-methoxy-2,3,5,6-tetrahydrobenzo[b][1,5]diazocin-4(1H)-one] is 1 (1: 90-110% of control).
For the compound `O=C(CN1CCC(=O)N(C2CC2)Cc2cc(F)ccc21)c1ccc2c(c1)OCCO2` [Compound 55, 5-cyclopropyl-1-(2-(2,3-dihydrobenzo[b][1,4]dioxin-6-yl)-2-oxoethyl)-8-fluoro-2,3,5,6-tetrahydrobenzo[b][1,5]diazocin-4(1H)-one], the “Insulin secretion” value is given as 2 (2: 110-120% of control).
As for `O=C(CN1CCC(=O)N(C2CC2)Cc2cc(F)ccc21)c1ccc(N2CCCC2)cc1` [Compound 56, 5-cyclopropyl-8-fluoro-1-(2-oxo-2-(4-(pyrrolidin-1-yl)phenyl)ethyl)-2,3,5,6-tetrahydrobenzo[b][1,5]diazocin-4(1H)-one], the “Insulin secretion” value is recorded as 2 (2: 110-120% of control).
For `COc1ccccc1C(O)CN1CCC(=O)N(C2CC2)Cc2cc(F)ccc21` (stereo not shown) [Compound 57, 5-cyclopropyl-8-fluoro-1-(2-hydroxy-2-(2-methoxyphenyl)ethyl)-2,3,5,6-tetrahydrobenzo[b][1,5]diazocin-4(1H)-one], the “Insulin secretion” value is 2 (2: 110-120% of control).
As to `COc1cccc(C(O)CN2CCC(=O)N(C3CC3)Cc3cc(F)ccc32)c1` (stereo not shown) [Compound 58, 5-cyclopropyl-8-fluoro-1-(2-hydroxy-2-(3-methoxyphenyl)ethyl)-2,3,5,6-tetrahydrobenzo[b][1,5]diazocin-4(1H)-one], the “Insulin secretion” value is listed as 2 (2: 110-120% of control).
`COc1ccc(C(O)CN2CCC(=O)N(C3CC3)Cc3cc(F)ccc32)cc1` (stereo not shown) [Compound 59, 5-cyclopropyl-8-fluoro-1-(2-hydroxy-2-(4-methoxyphenyl)ethyl)-2,3,5,6-tetrahydrobenzo[b][1,5]diazocin-4(1H)-one]: the “Insulin secretion” value was 2 (2: 110-120% of control).
For `O=C1CCN(CC(O)c2ccc3c(c2)OCCO3)c2ccc(F)cc2CN1C1CC1` (stereo not shown) [Compound 60, 5-cyclopropyl-1-(2-(2,3-dihydrobenzo[b][1,4]dioxin-6-yl)-2-hydroxyethyl)-8-fluoro-2,3,5,6-tetrahydrobenzo[b][1,5]diazocin-4(1H)-one], the “Insulin secretion” value is listed as 2 (2: 110-120% of control).
Take `O=C1CCN(CC(O)c2ccccc2)c2ccc(F)cc2CN1C1CC1` (stereo not shown) [Compound 61, 5-cyclopropyl-8-fluoro-1-(2-hydroxy-2-phenylethyl)-2,3,5,6-tetrahydrobenzo[b][1,5]diazocin-4(1H)-one]: the “Insulin secretion” value is on record as 3 (3: 120-140% of control).
Turning to `O=C1CCNc2cnccc2CN1C1CC1` [Compound 62, 5-cyclopropyl-2,3,5,6-tetrahydropyrido[3,4-b][1,5]diazocin-4(1H)-one], the “Insulin secretion” value is on record as 2 (2: 110-120% of control).
Consider `C=CCOc1c(OC)ccc2c1CN(C1CCCC1)C(=O)CCN2CC(=O)O` [Compound 63, 2-(7-(allyloxy)-5-cyclopentyl-8-methoxy-4-oxo-3,4,5,6-tetrahydrobenzo[b][1,5]diazocin-1(2H)-yl)acetic acid], for which the “Insulin secretion” value was 1 (1: 90-110% of control).
`O=C1CCN(CC(O)c2ccc(N3CCCC3)cc2)c2ccc(F)cc2CN1C1CC1` (stereo not shown) [Compound 64, 5-cyclopropyl-8-fluoro-1-(2-hydroxy-2-(4-(pyrrolidin-1-yl)phenyl)ethyl)-2,3,5,6-tetrahydrobenzo[b][1,5]diazocin-4(1H)-one]: the “Insulin secretion” value was 5 (5: >170% of control).
